Measurements as given in ChEMBL document CHEMBL4665869, “New thiazolopyrimidine as anticancer agents: Synthesis, biological evaluation, DNA binding, molecular modeling and ADMET study” (Bioorg Med Chem Lett, 2020).
The source made the active and inactive calls. The rule behind the calls is not given here.

Assays:
Format in all cases: functional
[1] = Growth inhibition of human renal cancer cells; conditions: Renal cancer cell line
HOP-62 = assay: Growth inhibition of human HOP-62 cells at 10 uM relative to control
SF-539 = assay: Growth inhibition of human SF-539 cells at 10 uM relative to control
ACHN = assay: Growth inhibition of human ACHN cells at 10 uM relative to control
NCI-H322M = assay: Growth inhibition of human NCI-H322M cells at 10 uM relative to control; conditions: read-out: GI
UO-31 = assay: Growth inhibition of human UO-31 cells at 10 uM relative to control
Malme-3M = assay: Growth inhibition of human Malme-3M cells at 10 uM relative to control
KM12 = assay: Growth inhibition of human KM12 cells at 10 uM relative to control
SK-MEL-28 = assay: Growth inhibition of human SK-MEL-28 cells at 10 uM relative to control
NCI/ADR-RES = assay: Growth inhibition of human NCI/ADR-RES cells at 10 uM relative to control; conditions: read-out: GI
NCI-H23 = assay: Growth inhibition of human NCI-H23 cells at 10 uM relative to control
HCT-116 = assay: Growth inhibition of human HCT-116 cells at 10 uM relative to control
SW-620 = assay: Growth inhibition of human SW-620 cells at 10 uM relative to control
RXF 393 = assay: Growth inhibition of human RXF 393 cells at 10 uM relative to control

## COc1cc(/C=C/C2=CC(c3cc(OC)c(OC)c(OC)c3)N3C=C(C)SC3=N2)cc(OC)c1OC (stereo unspecified)
[1]
  GI50: 1.49 µM
  TGI: 4.38 µM
[1]; read-out: LC50 (the source's name)
  CC50: 54.7 µM
HOP-62
  growth inhibition (GI): Active
SF-539
  growth inhibition (GI): Active
ACHN
  growth inhibition (GI): Active
NCI-H322M
  inhibition of growth at 10 µM: 86.4%
UO-31
  growth inhibition (GI): Active
Malme-3M
  growth inhibition (GI): Active
KM12
  growth inhibition (GI): Active
SK-MEL-28
  growth inhibition (GI): Active
NCI/ADR-RES
  inhibition of growth at 10 µM: 80.6%
NCI-H23
  growth inhibition (GI): Active
HCT-116
  growth inhibition (GI): Active
SW-620
  growth inhibition (GI): Active
RXF 393
  growth inhibition (GI): Active
